# Laboratory results as given in US20140087451A1, “ACOUSTIC WAVE (AW) SENSING DEVICES USING LIVE CELLS” (University of Massachusetts, priority 2010, published 2014).
# Key:
# HMVEC-L cells = assay: Commercial quartz crystal microbalance (QCM), 10 MHz fundamental frequency, equivalent prior experiments; type: cell-based, human
# [1] = test system: Human Microvascular Endothelial Cells derived from Lung (HMVEC-L); assay: Surface acoustic wave (SAW) device, 21 MHz, frequency and attenuation response of attached cells; type: cell-based; details: for sensitivity (frequency shift normalized to operating frequency and number of live attached cells): SAW 21 MHz
# Procedure: An AT cut quartz wafer was prepared with electrodes for a surface acoustic wave (SAW) patterned on one side. The transmitting and receiving electrodes were composed of interdigitated (IDT) electrodes fabricated by lift off of gold deposited by electron beam evaporation. The IDTs were composed of 120 pairs of electrode fingers. This spacing corresponds to the wavelength of a SAW of 21 MHz. The sensing area between the IDTs was 20×8 mm. A 2 μm thick layer of poly(methylmethacrylate) (PMMA) was spin coated onto the surface of the SAW to serve as an insulating layer for the IDTs as well as a waveguide for the Love waves generated by the transmitting IDT.
# The SAW was connected to an Agilent E5061B network analyzer, set up for transmission measurements (s12). Before liquid was added, the resonant frequency of 21 MHz was confirmed. Using Labview software, the resonant frequency and attenuation of the SAW was measured once per second during an experiment. A drop of cell media containing cells was placed in the sensing area allowing cells to attach, as described below.
# The Human Microvascular Endothelial Cells derived from Lung (HMVEC-L) cell line was obtained from Lonza (Basel, Switzerland) and stock cultures were established and grown in media recommended by the manufacturers, at 37° C. in a humidity controlled incubator with 5% CO2, unless otherwise noted. The media used was EBM™-2, (CC-3156) (Lonza Basel, Switzerland) with EGM™-2-MV BulletKit™ (CC-3202) (Lonza Basel, Switzerland) containing hEGF, Hydrocortisone, GA-1000 (Gentamicin, Amphotericin-B), VEGE, hFGF-B, R3-IGF-1 and 5% FBS. The HMVEC-L cells were grown in 25 cm^2 rectangular canted neck cell culture flasks with vented caps (Corning Life Science, Lowell, Mass.), and re-fed every three days and passaged once a week using a 0.05% solution of trypsin:EGTA (Invitrogen, Carlsbad, Calif.) as stock cultures.
# Two different treatments of the cells on the SAW device were carried out in separate experiments. […] All the solutions were stored at 4° C. in a refrigerator. Prior to cell plating onto the SAW device, the SAW device was cleaned by rinsing with distilled water and then UV sterilized for 30 min. After sterilization and further washing with water and Phosphate Buffered Saline (PBS), 50 μl of medium containing 20,000 HMVEC-L cells was added to the sensing area of the SAW device, which had been previously placed within a 150 mm diameter Petri dish. Smaller Petri dishes filled with reservoirs of media were placed around the central SAW device, in order to provide additional surface area for evaporation of water. The purpose of this arrangement, large volume and area reservoirs of iso-osmotic pressure media in the Petri dishes, was to prevent evaporative loss of water from the small volume of media covering the cells in the sensing area of the SAW device. The SAW device in the large covered Petri dish was located on the bench top in ambient air. The Petri dish cover was removed and cells were plated in media onto the sensing area surface of the SAW device and the HMVEC-L cells in the covered Petri dish were allowed to attach to the sensing area SAW device surface for 18 hr. Then, the media was changed with 50 μl fresh medium.
# [2] = test system: its specific growth factor receptor; details: stated as 'has been shown'; cited from earlier work
# HMECs = details: bFGF added to HMECs; cited from earlier work
# [3] = test system: Human Mammary Epithelial Cells (HMECs); assay: QCM (10 MHz) fundamental and third overtone frequency shift with attached cells treated with growth factor; type: cell-based; details: bFGF 12.5 ng/ml final; 20,000 HMEC cells on 10 MHz QCM; 300 min after addition; FIG. 6
# Excerpt: An AT cut 0.538″ diameter quartz disk with 100 nm thick gold electrodes was used for the piezoelectric medium in this experiment. A polydimethylsiloxane (PDMS) tube with an outer diameter of 0.4″ and an inner diameter of 0.3″ and 0.3″ high was attached to one side of the quartz disk for use as a reservoir for cell media. The quartz crystal was mounted in a HC35/U holder with silver epoxy bonding between the electrodes and the gold electrodes on the crystal.
# The oscillator circuitry is a Colpitts oscillator, shown in FIG. 7, modified to enable the quartz to undergo shear wave oscillations under a liquid load. The thickness of the crystal is such that an unloaded crystal oscillating in air would operate at 10 MHz. The Colpitts oscillator was tuned to only amplify frequencies in the range of 10 MHz. A second class C amplifier operating as a frequency multiplier was connected to the ungrounded electrode of the quartz crystal. The multiplier was tuned to capture the crystal's third harmonic oscillations. The output of the multiplier and the voltage at the crystal were connected to the inputs of a two channel oscilloscope. The waveforms were digitally captured using Labview software and passed through a fast Fourier transform. The frequency of the signals were captured and recorded at one minute intervals, prior to and following addition of cells to the crystal surface. […]
molecule,measurement,setting,value
"[N-]=[N+]=[N-] [sodium azide, Sodium azide]",equivalent sensitivity,HMVEC-L cells; 50 mM azide experiment,4.1×10^−9 /cell
same,change in Attenuation values,"[1]; 50 mM sodium azide final, 20,000 HMVEC-L cells on SAW device, FIG. 11",approximately 8 dBm
same,increase in frequency,"[1]; 50 mM sodium azide final, 20,000 HMVEC-L cells on SAW sensing area, 4 hr after addition, FIG. 11",about 17 kHz
same,sensitivity (frequency shift normalized to operating frequency and number of live attached cells),[1]; 50 mM sodium azide experiment,5.6×10^−8 /cell
"bFGF: Basic human Fibroblast Growth Factor from Sigma, reconstituted in 50 mM Tris-HCl pH7.5",time to bind and activate its specific growth factor receptor,[2],≤ 8 min
same,lag time of proliferative response (increase in thymidine incorporation),HMECs,about 21 hr
same,frequency shift of third overtone compared to the fundamental in response to the growth factor,[3],larger frequency shift
trypsin,equivalent sensitivity,HMVEC-L cells; trypsinization experiment,1×10^−8 /cell
same,abrupt increase in frequency,"[1]; 0.05% trypsin:EGTA, cell release, 20,000 HMVEC-L cells on SAW sensing area, FIG. 12",about 60 kHz
same,sensitivity (frequency shift normalized to operating frequency and number of live attached cells),[1]; Trypsin enzymatic removal experiment,3.75×10^−7 /cell
